Activity calls are given as the source filed them. The rule behind the calls is not given here.
Tested on: CCRIS mutagenicity, Ames/micronucleus/aberration tests
Test: CCRIS mutagenicity studies

`O=C([O-])c1ccccn1.O=C([O-])c1ccccn1.O=C([O-])c1ccccn1.[Cr+3]` was tested, and the mutagenic call (End Point: In vivo chromosomal aberrations, Test System: Bone marrow cells, Species: Rat, Strain/Sex: Sprague-Dawley/Male and female, Route: Oral (gavage) once) was “inactive; negative”, the mutagenic call (End Point: In vivo micronucleus, Test System: Bone marrow polychromatic erythrocytes, Species: Rat, Strain/Sex: F344/N / Male, Route: Oral) was “inactive; negative” and the mutagenic call (Test System: AMES SALMONELLA TYPHIMURIUM, Strain/Indicator: TA98, Metabolic Activation: HAMSTER LIVER S-9, AROCLOR 1254, Method: STANDARD PLATE) was “inactive; negative”. For the same compound, the mutagenic call (Test System: AMES SALMONELLA TYPHIMURIUM, Strain/Indicator: TA98, Metabolic Activation: HAMSTER, LIVER, S-9, AROCLOR 1254, Method: STANDARD PLATE) was “inactive; negative”, the mutagenic call (Test System: AMES SALMONELLA TYPHIMURIUM, Strain/Indicator: TA98, Metabolic Activation: NONE, Method: STANDARD PLATE) was “inactive; negative” and the mutagenic call (Test System: AMES SALMONELLA TYPHIMURIUM, Strain/Indicator: TA98, Metabolic Activation: RAT LIVER S-9, AROCLOR 1254, Method: STANDARD PLATE) was “inactive; negative”. The mutagenic call (Test System: AMES SALMONELLA TYPHIMURIUM, Strain/Indicator: TA98, Metabolic Activation: RAT, LIVER, S-9, AROCLOR 1254, Method: STANDARD PLATE) was “inactive; negative”, the mutagenic call (Test System: AMES SALMONELLA TYPHIMURIUM, Strain/Indicator: TA100, Metabolic Activation: HAMSTER LIVER S-9, AROCLOR 1254, Method: STANDARD PLATE) was “inactive; negative” and the mutagenic call (Test System: AMES SALMONELLA TYPHIMURIUM, Strain/Indicator: TA100, Metabolic Activation: HAMSTER, LIVER, S-9, AROCLOR 1254, Method: STANDARD PLATE) was “inactive; negative”. For the same compound, the mutagenic call (Test System: AMES SALMONELLA TYPHIMURIUM, Strain/Indicator: TA100, Metabolic Activation: NONE, Method: STANDARD PLATE) was “inactive; negative”, the mutagenic call (Test System: AMES SALMONELLA TYPHIMURIUM, Strain/Indicator: TA100, Metabolic Activation: RAT LIVER S-9, AROCLOR 1254, Method: STANDARD PLATE) was “inactive; negative” and the mutagenic call (Test System: AMES SALMONELLA TYPHIMURIUM, Strain/Indicator: TA100, Metabolic Activation: RAT, LIVER, S-9, AROCLOR 1254, Method: STANDARD PLATE) was “inactive; negative”. For the same compound, the mutagenic call (Test System: AMES SALMONELLA TYPHIMURIUM, Strain/Indicator: TA102, Metabolic Activation: HAMSTER LIVER S-9, AROCLOR 1254, Method: STANDARD PLATE) was “inactive; negative”, the mutagenic call (Test System: AMES SALMONELLA TYPHIMURIUM, Strain/Indicator: TA102, Metabolic Activation: NONE, Method: STANDARD PLATE) was “inactive; negative” and the mutagenic call (Test System: AMES SALMONELLA TYPHIMURIUM, Strain/Indicator: TA102, Metabolic Activation: RAT LIVER S-9, AROCLOR 1254, Method: STANDARD PLATE) was “inactive; negative”. For the same compound, the mutagenic call (Test System: AMES SALMONELLA TYPHIMURIUM, Strain/Indicator: TA1535, Metabolic Activation: HAMSTER LIVER S-9, AROCLOR 1254, Method: STANDARD PLATE) was “inactive; negative”, the mutagenic call (Test System: AMES SALMONELLA TYPHIMURIUM, Strain/Indicator: TA1535, Metabolic Activation: HAMSTER, LIVER, S-9, AROCLOR 1254, Method: STANDARD PLATE) was “inactive; negative” and the mutagenic call (Test System: AMES SALMONELLA TYPHIMURIUM, Strain/Indicator: TA1535, Metabolic Activation: NONE, Method: STANDARD PLATE) was “inactive; negative”. The mutagenic call (Test System: AMES SALMONELLA TYPHIMURIUM, Strain/Indicator: TA1535, Metabolic Activation: RAT LIVER S-9, AROCLOR 1254, Method: STANDARD PLATE) was “inactive; negative”, the mutagenic call (Test System: AMES SALMONELLA TYPHIMURIUM, Strain/Indicator: TA1535, Metabolic Activation: RAT, LIVER, S-9, AROCLOR 1254, Method: STANDARD PLATE) was “inactive; negative” and the mutagenic call (Test System: AMES SALMONELLA TYPHIMURIUM, Strain/Indicator: TA1537, Metabolic Activation: HAMSTER LIVER S-9, AROCLOR 1254, Method: STANDARD PLATE) was “inactive; negative”. The mutagenic call (Test System: AMES SALMONELLA TYPHIMURIUM, Strain/Indicator: TA1537, Metabolic Activation: HAMSTER, LIVER, S-9, AROCLOR 1254, Method: STANDARD PLATE) was “inactive; negative”, the mutagenic call (Test System: AMES SALMONELLA TYPHIMURIUM, Strain/Indicator: TA1537, Metabolic Activation: NONE, Method: STANDARD PLATE) was “inactive; negative” and the mutagenic call (Test System: AMES SALMONELLA TYPHIMURIUM, Strain/Indicator: TA1537, Metabolic Activation: RAT LIVER S-9, AROCLOR 1254, Method: STANDARD PLATE) was “inactive; negative”. For the same compound, the mutagenic call (Test System: AMES SALMONELLA TYPHIMURIUM, Strain/Indicator: TA1537, Metabolic Activation: RAT, LIVER, S-9, AROCLOR 1254, Method: STANDARD PLATE) was “inactive; negative”, the mutagenic call (Test System: Ames Salmonella typhimurium, Strain/Indicator: TA97, Metabolic Activation: Hamster, Liver, S-9, Aroclor 1254 (10 and 30%), Method: Preincubation) was “inactive; negative” and the mutagenic call (Test System: Ames Salmonella typhimurium, Strain/Indicator: TA97, Metabolic Activation: None, Method: Preincubation) was “inactive; negative”. The mutagenic call (Test System: Ames Salmonella typhimurium, Strain/Indicator: TA97, Metabolic Activation: Rat, Liver, S-9, Aroclor 1254 (10 and 30%), Method: Preincubation) was “inactive; negative”, the mutagenic call (Test System: Ames Salmonella typhimurium, Strain/Indicator: TA98, Metabolic Activation: Hamster, Liver, S-9, Aroclor 1254 (10 and 30%), Method: Preincubation) was “inactive; negative” and the mutagenic call (Test System: Ames Salmonella typhimurium, Strain/Indicator: TA98, Metabolic Activation: None, Method: Preincubation) was “inactive; negative”. For the same compound, the mutagenic call (Test System: Ames Salmonella typhimurium, Strain/Indicator: TA98, Metabolic Activation: Rat, Liver, S-9, Aroclor 1254 (10 and 30%), Method: Preincubation) was “inactive; negative”, the mutagenic call (Test System: Ames Salmonella typhimurium, Strain/Indicator: TA100, Metabolic Activation: Hamster, Liver, S-9, Aroclor 1254 (10 and 30%), Method: Preincubation) was “inactive; negative” and the mutagenic call (Test System: Ames Salmonella typhimurium, Strain/Indicator: TA100, Metabolic Activation: None, Method: Preincubation) was “inactive; negative”. For the same compound, the mutagenic call (Test System: Ames Salmonella typhimurium, Strain/Indicator: TA100, Metabolic Activation: Rat, Liver, S-9, Aroclor 1254 (10 and 30%), Method: Preincubation) was “inactive; negative”, the mutagenic call (Test System: Ames Salmonella typhimurium, Strain/Indicator: TA102, Metabolic Activation: Hamster, Liver, S-9, Aroclor 1254 (10 and 30%), Method: Preincubation) was “inactive; negative” and the mutagenic call (Test System: Ames Salmonella typhimurium, Strain/Indicator: TA102, Metabolic Activation: Hamster, Liver, S-9, Aroclor 1254 (30%), Method: Preincubation) was “inactive; negative”. For the same compound, the mutagenic call (Test System: Ames Salmonella typhimurium, Strain/Indicator: TA102, Metabolic Activation: None, Method: Preincubation) was “inactive; negative”, the mutagenic call (Test System: Ames Salmonella typhimurium, Strain/Indicator: TA102, Metabolic Activation: Rat, Liver, S-9, Aroclor 1254 (10 and 30%), Method: Preincubation) was “inactive; negative” and the mutagenic call (Test System: Ames Salmonella typhimurium, Strain/Indicator: TA102, Metabolic Activation: Rat, Liver, S-9, Aroclor 1254 (30%), Method: Preincubation) was “inactive; negative”. The mutagenic call (Test System: Ames Salmonella typhimurium, Strain/Indicator: TA104, Metabolic Activation: Hamster, Liver, S-9, Aroclor 1254 (10 and 30%), Method: Preincubation) was “inactive; negative”, the mutagenic call (Test System: Ames Salmonella typhimurium, Strain/Indicator: TA104, Metabolic Activation: Hamster, Liver, S-9, Aroclor 1254 (30%), Method: Preincubation) was “inactive; negative” and the mutagenic call (Test System: Ames Salmonella typhimurium, Strain/Indicator: TA104, Metabolic Activation: None, Method: Preincubation) was “inactive; negative”. For the same compound, the mutagenic call (Test System: Ames Salmonella typhimurium, Strain/Indicator: TA104, Metabolic Activation: Rat, Liver, S-9, Aroclor 1254 (10 and 30%), Method: Preincubation) was “inactive; negative”, the mutagenic call (Test System: Ames Salmonella typhimurium, Strain/Indicator: TA104, Metabolic Activation: Rat, Liver, S-9, Aroclor 1254 (30%), Method: Preincubation) was “inactive; negative” and the mutagenic call (Test System: Ames Salmonella typhimurium, Strain/Indicator: TA1535, Metabolic Activation: Hamster, Liver, S-9, Aroclor 1254 (10 and 30%), Method: Preincubation) was “inactive; negative”. For the same compound, the mutagenic call (Test System: Ames Salmonella typhimurium, Strain/Indicator: TA1535, Metabolic Activation: None, Method: Preincubation) was “inactive; negative”, the mutagenic call (Test System: Ames Salmonella typhimurium, Strain/Indicator: TA1535, Metabolic Activation: Rat, Liver, S-9, Aroclor 1254 (10 and 30%), Method: Preincubation) was “inactive; negative” and the mutagenic call (Test System: CHINESE HAMSTER OVARY CELLS, Strain/Indicator: CHO CELLS (HPRT)/6-THIOGUANINE, Metabolic Activation: NONE, Method: STANDARD PLATE) was “active; positive”. For the same compound, the mutagenic call (Test System: CHINESE HAMSTER OVARY CELLS, Strain/Indicator: CHO-K1/HPRT/6-THIOGUANINE, Metabolic Activation: NONE, Method: 5 HR EXPOSURE) was “inactive; negative”, the mutagenic call (Test System: CHINESE HAMSTER OVARY CELLS, Strain/Indicator: CHO-K1/HPRT/6-THIOGUANINE, Metabolic Activation: NONE, Method: 48 HR EXPOSURE) was “inactive; negative” and the mutagenic call (Test System: CHINESE HAMSTER OVARY CELLS, Strain/Indicator: CHO-K1/HPRT/6-THIOGUANINE, Metabolic Activation: RAT, LIVER, S-9, AROCLOR 1254, Method: 5 HR EXPOSURE) was “inactive; negative”.

Source: PubChem BioAssay AID1259407 (Chemical Carcinogenesis Research Information System (CCRIS), 2018)
